Test system: Suspension culture cells
Assay: Protein synthesis: incorporation of radiolabeled amino acids into TCA-precipitable cell components
Format: cell-based, maize
Details: Zea mays; 1×10^-5 M 997; cells at different post-subculture intervals; cell fresh weight basis
Procedure: Suspension culture cells were preincubated for 48 hours in the presence or absence of 1×10^-5 M 997 and then exposed for 12 hours to 75 !Ci of either ^35 S-methionine (1210 Ci/mmol, New England Nuclear, Boston, Mass.) or ^3 H-DL-leucine (55 Ci/mmol, ICN Pharmaceuticals Inc. -K and K Laboratories, Plainview, N.Y.) per 0.1 ml of cells at a cell density of 10% volume cells/volume suspension. Cells were then centrifuged 300×g, washed with cold MS culture media, and ground with a cold mortar and pestle in the presence of one volume of 6 M urea. The resulting extract was centrifuged at 12,800×g for 5 minutes. The pellet was then reextracted and, following centrifugation, the extracts were combined. Protein was precipitated by the addition of 10% w/v trichloroacetic acid (TCA). Protein was removed by centrifugation and resolubilized in 6 M urea. Incorporation of radiolabel into protein was determined by scintillation counting.

Q: `CC(C)C1(C)NC(c2ncccc2C(=O)O)=NC1=O` (stereo not shown) [compound 997, 2-(5-isopropyl-5-methyl-4-oxo-2-imidazolin-2-yl)nicotinic acid] was tested. Which inhibition at 10 µM did it give?
A: Its inhibition at 10 µM is 50 to 77%.
